Patent publication US20240024273A1, “TOPICAL ADMINISTRATION OF 2-(DIETHYLAMINO)ETHYL 2-(4-ISOBUTYLPHENYL)PROPRIONATE FOR TREATMENT OF DISEASES” (TECHFIELDS PHARMA CO., LTD., priority 2020, published 2024)
Read-outs that look alike come from different tables or passages of the source.

Columns and labels:
[1] = Phase 1 clinical study: plasma pharmacokinetics of prodrug and ibuprofen; format: in vivo, human; conditions: for AUC0-12: read-out: prodrug AUC0-12; for AUC(0-t): read-out: prodrug AUClast; for Cmax: read-out: prodrug Cmax; for Tmax: read-out: prodrug Tmax, median (range); for half-life: read-out: prodrug t1/2 (converted)
Description: Following a 5-day washout period, 2-(diethylamino)ethyl 2-(4-isobutylphenyl)propionate was administered b.i.d. during Days 6-11, and a morning dose only was administered to Day 12. Blood samples were collected for PK analysis over the 120-hour post-dose period following the Day 12 dose. Additionally, pre-dose blood samples were collected on Day 7 through Day 11 to evaluate steady-state status.
The same study procedures were followed as described in Part 1.
For single dose PK, serial blood samples were collected on Day 1 dose at the following time points: 0 (pre-dose), 0.25, 0.5, 0.75, 1, 1.5, 2, 2.5, 3, 4, 5, 6, 8, 10, 12, 18, 24, 48, 72, 96 and 120 hours post-dose.
For multiple-dose PK, serial blood samples were collected on Day 12 at the following time points: 0 (pre-dose), 0.25, 0.5, 0.75, 1, 1.5, 2, 2.5, 3, 4, 5, 6, 8, 10, 12, 18, 24, 48, 72, 96 and 120 hours post-dose.
The relative bioavailability of the single dose 70 mg topical application vs. 70 mg spray application was determined based on AUCtau, AUCinf and Cmax. The 90% confidence intervals (CIs) on the ratio of topical application vs. spray application were calculated.

Osteoarthritis = assay: Phase 2 study: effect of treatment on sign and symptoms of osteoarthritis at 12 weeks (re-analysis, all patients taken as active); format: in vivo, human; conditions: for difference from placebo, sign and symptoms of OA: placebo effect assumed −6.1; for Mean ± SEM WOMAC Osteoarthritis Index Composite Score Change from Baselines / Mean ± SEM WOMAC Osteoarthritis Index Composite Score Change from Baselines, adjusted by […] of the testing drug amount: scale 0 to 100
Text: (William G. Bensen, Justus J. Fiechtner, James 1. McMillen, et. al. Treatment of Osteoarthritis with Celecoxib. Mayo Clin Proc, November 1999. Vol 74, 1095-1105.)

[2] = human, plasma, topical or ocular, 17.5 mg, Day 1, 17.5 mg topical
[3] = human, plasma, topical or ocular, 17.5 mg, Day 12, 17.5 mg b.i.d. topical
[4] = human, plasma, topical or ocular, 35 mg, Day 1, 35 mg topical
[5] = human, plasma, topical or ocular, 35 mg, Day 12, 35 mg b.i.d. topical
[6] = human, plasma, topical or ocular, 70 mg, Day 1, 70 mg topical
[7] = human, plasma, topical or ocular, 70 mg, Day 12, 70 mg b.i.d. topical
[8] = human, plasma, topical or ocular, 140 mg, Day 1, 140 mg topical
[9] = human, plasma, topical or ocular, 140 mg, Day 12, 140 mg b.i.d. topical
[10] = human, plasma, topical or ocular, 280 mg, Day 1, 280 mg topical
[11] = human, plasma, topical or ocular, 280 mg, Day 12, 280 mg b.i.d. topical
[12] = human, plasma, topical, 70 mg, Day 1, 70 mg spray
[13] = human, plasma, topical, 70 mg, Day 12, 70 mg b.i.d. spray

CCN(CC)CCOC(=O)C(C)c1ccc(CC(C)C)cc1 (centres unmarked) [2-(diethylamino)ethyl 2-(4-isobutylphenyl)propionate]
dose proportionality of prodrug and ibuprofen Cmax and AUC0-last ([1]; 17.5 mg to 280 mg, single and multiple): did not increase in a dose-proportional manner
prodrug mean Cmax after 7 days b.i.d., increase ([1]; 140 mg and 280 mg doses): about 2 fold
prodrug Kel ([1]; Day 12, 17.5 mg b.i.d. topical): 0.0241 (N/A) 1/h
prodrug Kel ([1]; Day 12, 70 mg b.i.d. topical): 0.0656 (N/A) 1/h
prodrug Kel ([1]; Day 12, 140 mg b.i.d. topical): 0.0398 (N/A) 1/h
prodrug Kel ([1]; Day 12, 280 mg b.i.d. topical): 0.0374 (0.0310) 1/h
conversion of absorbed prodrug to ibuprofen ([1]; human, in vivo): > 99%
AUC0-12 [1, 2]: 0.837 ng·h/mL
AUC(0-t) [1, 2]: 1.45 ng·h/mL
Cmax [1, 2]: 0.158 ng/mL
Tmax [1, 2]: 8 h
AUC0-12 [1, 3]: 0.809 ng·h/mL
AUC(0-t) [1, 3]: 1.31 ng·h/mL
Cmax [1, 3]: 0.092 ng/mL
Tmax [1, 3]: 8 h
AUC0-12 [1, 4]: 0.34 ng·h/mL
AUC(0-t) [1, 4]: 0.864 ng·h/mL
Cmax [1, 4]: 0.0862 ng/mL
Tmax [1, 4]: 11 h
AUC0-12 [1, 5]: 1.21 ng·h/mL
AUC(0-t) [1, 5]: 2.29 ng·h/mL
Cmax [1, 5]: 0.153 ng/mL
Tmax [1, 5]: 5.12 h
AUC0-12 [1, 6]: 0.836 ng·h/mL
AUC(0-t) [1, 6]: 1.99 ng·h/mL
Cmax [1, 6]: 0.16 ng/mL
Tmax [1, 6]: 10 h
AUC0-12 [1, 7]: 1.1 ng·h/mL
AUC(0-t) [1, 7]: 1.49 ng·h/mL
Cmax [1, 7]: 0.162 ng/mL
Tmax [1, 7]: 3.5 h
AUC0-12 [1, 8]: 0.478 ng·h/mL
AUC(0-t) [1, 8]: 1.45 ng·h/mL
Cmax [1, 8]: 0.116 ng/mL
Tmax [1, 8]: 18 h
AUC0-12 [1, 9]: 1.82 ng·h/mL
AUC(0-t) [1, 9]: 3.6 ng·h/mL
Cmax [1, 9]: 0.305 ng/mL
Tmax [1, 9]: 2.5 h
AUC0-12 [1, 10]: 0.675 ng·h/mL
AUC(0-t) [1, 10]: 4.48 ng·h/mL
Cmax [1, 10]: 0.233 ng/mL
Tmax [1, 10]: 18 h
AUC0-12 [1, 11]: 3.71 ng·h/mL
AUC(0-t) [1, 11]: 11.6 ng·h/mL
Cmax [1, 11]: 0.505 ng/mL
Tmax [1, 11]: 0.25 h
half-life ([1]; human, plasma, topical or ocular, Day 12, 17.5 mg b.i.d. topical): 28.8 h
half-life ([1]; human, plasma, topical or ocular, Day 12, 70 mg b.i.d. topical): 10.6 h
half-life ([1]; human, plasma, topical or ocular, Day 12, 140 mg b.i.d. topical): 17.4 h
AUC(0-inf) ([1]; human, plasma, topical or ocular, Day 12, 280 mg b.i.d. topical, read-out: prodrug AUCinf): 18.1 ng·h/mL
half-life ([1]; human, plasma, topical or ocular, Day 12, 280 mg b.i.d. topical): 37.8 h
AUC0-12 [1, 12]: 0.514 ng·h/mL
AUC(0-t) [1, 12]: 0.947 ng·h/mL
Cmax [1, 12]: 0.119 ng/mL
Tmax [1, 12]: 10 h
AUC0-12 [1, 13]: 1.06 ng·h/mL
AUC(0-t) [1, 13]: 2.62 ng·h/mL
Cmax [1, 13]: 0.185 ng/mL
Tmax [1, 13]: 3 h
relative bioavailability of spray vs topical application (plasma ibuprofen) ([1]; single application, 70 mg): lower
time by which all subjects had measurable plasma prodrug levels ([1]; topical application): ≤ 3 hours post-dose
difference from placebo, sign and symptoms of OA (Osteoarthritis; 8.75 mg BID, Week 12): −13.4
adjusted best result relative to Celecoxib (100 mg, BID) (Osteoarthritis; 17.5 mg BID): 6 times
best result relative to Celecoxib (100 mg, BID) (Osteoarthritis; 17.5 mg BID): 3 times
difference from placebo, adjusted by […] of the testing drug (Osteoarthritis; 17.5 mg BID, Week 12): −43.5
difference from placebo, sign and symptoms of OA (Osteoarthritis; 17.5 mg BID, Week 12): −22.8
difference from placebo, sign and symptoms of OA (Osteoarthritis; 35 mg BID, Week 12): −16.9
Mean ± SEM WOMAC Osteoarthritis Index Composite Score Change from Baselines (Osteoarthritis; 2 sprays/knee (8.75 mg, BID) transdermally, Follow-up (Week13)): −18.4 ± 3.20
Mean ± SEM WOMAC Osteoarthritis Index Composite Score Change from Baselines (Osteoarthritis; 2 sprays/knee (8.75 mg, BID) transdermally, Week 2): −11.1 ± 2.50
Mean ± SEM WOMAC Osteoarthritis Index Composite Score Change from Baselines (Osteoarthritis; 2 sprays/knee (8.75 mg, BID) transdermally, Week 4): −18.0 ± 2.50
Mean ± SEM WOMAC Osteoarthritis Index Composite Score Change from Baselines (Osteoarthritis; 2 sprays/knee (8.75 mg, BID) transdermally, Week 8): −18.1 ± 2.92
Mean ± SEM WOMAC Osteoarthritis Index Composite Score Change from Baselines (Osteoarthritis; 2 sprays/knee (8.75 mg, BID) transdermally, Week 12): −19.5 ± 3.18
Mean ± SEM WOMAC Osteoarthritis Index Composite Score Change from Baselines, adjusted by […] of the testing drug amount (Osteoarthritis; 2 sprays/knee (8.75 mg, BID), Follow-up (Week 13)): −31.6 ± 5.49
Mean ± SEM WOMAC Osteoarthritis Index Composite Score Change from Baselines, adjusted by […] of the testing drug amount (Osteoarthritis; 2 sprays/knee (8.75 mg, BID), Week 2): −19.0 ± 4.29
Mean ± SEM WOMAC Osteoarthritis Index Composite Score Change from Baselines, adjusted by […] of the testing drug amount (Osteoarthritis; 2 sprays/knee (8.75 mg, BID), Week 4): −30.9 ± 4.29
Mean ± SEM WOMAC Osteoarthritis Index Composite Score Change from Baselines, adjusted by […] of the testing drug amount (Osteoarthritis; 2 sprays/knee (8.75 mg, BID), Week 8): −31.0 ± 5.01
Mean ± SEM WOMAC Osteoarthritis Index Composite Score Change from Baselines, adjusted by […] of the testing drug amount (Osteoarthritis; 2 sprays/knee (8.75 mg, BID), Week 12): −33.4 ± 5.45
Mean ± SEM WOMAC Osteoarthritis Index Composite Score Change from Baselines (Osteoarthritis; 4 sprays/knee (17.5 mg, BID) transdermally, Follow-up (Week13)): −23.4 ± 3.52
Mean ± SEM WOMAC Osteoarthritis Index Composite Score Change from Baselines (Osteoarthritis; 4 sprays/knee (17.5 mg, BID) transdermally, Week 2): −15.1 ± 2.89
Mean ± SEM WOMAC Osteoarthritis Index Composite Score Change from Baselines (Osteoarthritis; 4 sprays/knee (17.5 mg, BID) transdermally, Week 4): −21.3 ± 3.32
Mean ± SEM WOMAC Osteoarthritis Index Composite Score Change from Baselines (Osteoarthritis; 4 sprays/knee (17.5 mg, BID) transdermally, Week 8): −24.8 ± 3.26
Mean ± SEM WOMAC Osteoarthritis Index Composite Score Change from Baselines (Osteoarthritis; 4 sprays/knee (17.5 mg, BID) transdermally, Week 12): −28.9 ± 3.38
Mean ± SEM WOMAC Osteoarthritis Index Composite Score Change from Baselines, adjusted by […] of the testing drug amount (Osteoarthritis; 4 sprays/knee (17.5 mg, BID), Follow-up (Week 13)): −40.1 ± 6.04
Mean ± SEM WOMAC Osteoarthritis Index Composite Score Change from Baselines, adjusted by […] of the testing drug amount (Osteoarthritis; 4 sprays/knee (17.5 mg, BID), Week 2): −25.9 ± 4.96
Mean ± SEM WOMAC Osteoarthritis Index Composite Score Change from Baselines, adjusted by […] of the testing drug amount (Osteoarthritis; 4 sprays/knee (17.5 mg, BID), Week 4): −36.5 ± 5.69
Mean ± SEM WOMAC Osteoarthritis Index Composite Score Change from Baselines, adjusted by […] of the testing drug amount (Osteoarthritis; 4 sprays/knee (17.5 mg, BID), Week 8): −42.5 ± 5.59
Mean ± SEM WOMAC Osteoarthritis Index Composite Score Change from Baselines, adjusted by […] of the testing drug amount (Osteoarthritis; 4 sprays/knee (17.5 mg, BID), Week 12): −49.6 ± 5.80
Mean ± SEM WOMAC Osteoarthritis Index Composite Score Change from Baselines (Osteoarthritis; 8 sprays/knee (35 mg, BID) transdermally, Follow-up (Week13)): −22.1 ± 3.23
Mean ± SEM WOMAC Osteoarthritis Index Composite Score Change from Baselines (Osteoarthritis; 8 sprays/knee (35 mg, BID) transdermally, Week 2): −11.7 ± 2.88
Mean ± SEM WOMAC Osteoarthritis Index Composite Score Change from Baselines (Osteoarthritis; 8 sprays/knee (35 mg, BID) transdermally, Week 4): −17.0 ± 2.96
Mean ± SEM WOMAC Osteoarthritis Index Composite Score Change from Baselines (Osteoarthritis; 8 sprays/knee (35 mg, BID) transdermally, Week 8): −21.7 ± 3.28
Mean ± SEM WOMAC Osteoarthritis Index Composite Score Change from Baselines (Osteoarthritis; 8 sprays/knee (35 mg, BID) transdermally, Week 12): −23.0 ± 3.27
Mean ± SEM WOMAC Osteoarthritis Index Composite Score Change from Baselines, adjusted by […] of the testing drug amount (Osteoarthritis; 8 sprays/knee (35 mg, BID), Follow-up (Week 13)): −37.9 ± 5.54
Mean ± SEM WOMAC Osteoarthritis Index Composite Score Change from Baselines, adjusted by […] of the testing drug amount (Osteoarthritis; 8 sprays/knee (35 mg, BID), Week 2): −20.1 ± 4.94
Mean ± SEM WOMAC Osteoarthritis Index Composite Score Change from Baselines, adjusted by […] of the testing drug amount (Osteoarthritis; 8 sprays/knee (35 mg, BID), Week 4): −29.2 ± 5.08
Mean ± SEM WOMAC Osteoarthritis Index Composite Score Change from Baselines, adjusted by […] of the testing drug amount (Osteoarthritis; 8 sprays/knee (35 mg, BID), Week 8): −37.2 ± 5.63
Mean ± SEM WOMAC Osteoarthritis Index Composite Score Change from Baselines, adjusted by […] of the testing drug amount (Osteoarthritis; 8 sprays/knee (35 mg, BID), Week 12): −39.5 ± 5.61
